Key:
[1] = test system: human lung cancer strain NCI-H441; experiment: cells; details: NCI-H441, 96 h, read-out: NCI-H441 IC50 (nM), NCI-H441 cell proliferation, 4 days, CellTiter-Glo;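 further: cell proliferation inhibition after four days measured by CellTiter-Glo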
[2] = molecular target: GDP-bound KRAS wild-type protein (Homo sapiens, UniProt P01116); experiment: Binding to KRAS by surface plasmon resonance (SPR), Single Cycle Kinetics; details: SPR, Single Cycle Kinetics, GDP-bound KRAS wild-type protein; read-out: KRAS KD
[3] = molecular target: GDP-bound NRAS wild-type protein (Homo sapiens, UniProt P01111); experiment: Binding to NRAS by surface plasmon resonance (SPR), Single Cycle Kinetics; details: ratio of KD for GDP-bound NRAS wild-type protein to KD for KRAS, SPR
[4] = molecular target: GDP-bound HRAS wild-type protein (Homo sapiens, UniProt P01112); experiment: Binding to HRAS by surface plasmon resonance (SPR), Single Cycle Kinetics; details: ratio of KD for GDP-bound HRAS wild-type protein to KD for KRAS, SPR
Chain of GDP-bound HRAS wild-type protein (P01112 whole entry): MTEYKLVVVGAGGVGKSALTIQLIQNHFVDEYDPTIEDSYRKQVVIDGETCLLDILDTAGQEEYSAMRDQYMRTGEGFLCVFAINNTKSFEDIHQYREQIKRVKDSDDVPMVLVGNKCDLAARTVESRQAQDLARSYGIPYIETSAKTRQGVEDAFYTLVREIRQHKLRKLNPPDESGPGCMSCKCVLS

Chain of GDP-bound NRAS wild-type protein (P01111 whole entry): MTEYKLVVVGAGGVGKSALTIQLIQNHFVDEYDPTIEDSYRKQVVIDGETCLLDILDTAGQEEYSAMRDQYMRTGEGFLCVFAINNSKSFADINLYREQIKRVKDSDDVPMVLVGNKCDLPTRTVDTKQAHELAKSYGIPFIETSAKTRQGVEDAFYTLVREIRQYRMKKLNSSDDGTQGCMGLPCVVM
Chain of GDP-bound KRAS wild-type protein (P01116 whole entry): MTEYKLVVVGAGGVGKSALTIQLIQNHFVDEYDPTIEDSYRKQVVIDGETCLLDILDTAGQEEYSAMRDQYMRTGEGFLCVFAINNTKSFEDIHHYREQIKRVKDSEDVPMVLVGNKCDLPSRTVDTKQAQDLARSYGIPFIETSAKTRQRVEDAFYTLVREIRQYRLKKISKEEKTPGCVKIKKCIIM

Structure (SMILES)	IC50 [1] [nM]	Kd [2] [nM]	NRAS/KRAS (KD ratio) [3]	HRAS/KRAS (KD ratio) [4]
CCO[C@@H]1C[C@H]2C(=O)NC3(CC(C)(C)C3)C(=O)N(C)[C@@H](C3CCCC3)C(=O)N(C)[C@H](C(=O)N(C)C)CC(=O)N(C)[C@@H](C3CCC3)C(=O)N[C@@H]([C@@H](C)CC)C(=O)N(C)CC(=O)N(C)[C@H]3C/C=C\CCN(C3=O)[C@@H](Cc3ccc(C(F)(F)F)cc3)C(=O)N(C)CC(=O)N[C@@H](CCc3ccc(C(F)(F)F)c(OC)c3)C(=O)N2C1 [PP1987]	6.6	0.053	A (a compound having 10 or more and less than 20 is denoted as A)	A (a compound having 10 or more and less than 20 is denoted as A)
CC[C@H](C)[C@@H]1NC(=O)[C@H](CC2CC2)N(C)C(=O)C[C@@H](C(=O)N(C)C)N(C)C(=O)[C@H](C2CCCC2)N(C)C(=O)C2(CC(C)(C)C2)NC(=O)[C@@H]2C[C@H](C)CN2C(=O)[C@H](CCc2ccc(C(F)(F)F)c(OC)c2)NC(=O)CN(C)C(=O)[C@H](Cc2ccc(C)cc2)N2CC/C=C\C[C@@H](C2=O)N(C)C(=O)CN(C)C1=O [PP1898]	6.3	0.13	B (a compound having 3 or more and less than 10 is denoted as B)	B (a compound having 3 or more and less than 10 is denoted as B)
CCO[C@@H]1C[C@H]2C(=O)N(C)C3(CCCC3)C(=O)N(C)[C@@H](C3CCCC3)C(=O)N(C)[C@H](C(=O)N(C)C)CC(=O)N(C)[C@@H](CC)C(=O)N[C@@H]([C@@H](C)CC)C(=O)N(C)CC(=O)N(C)[C@H]3C/C=C\CCN(C3=O)[C@@H](Cc3ccc(C(F)(F)F)cc3)C(=O)N(C)CC(=O)N[C@@H](CCc3cc(F)c(C(F)(F)F)c(F)c3)C(=O)N2C1 [PP1804]	3.5	0.056	A (a compound having 10 or more and less than 20 is denoted as A)	A (a compound having 10 or more and less than 20 is denoted as A)
CCO[C@@H]1C[C@H]2C(=O)NC3(CC(F)(F)C3)C(=O)N(C)[C@@H](C(CC)CC)C(=O)N(C)[C@H](CC)CC(=O)N(C)[C@@H](CC3CC3)C(=O)N[C@@H]([C@@H](C)CC)C(=O)N(C)CC(=O)N(C)[C@H]3C/C=C\CCN(C3=O)[C@@H](Cc3ccc(C(F)(F)F)cc3)C(=O)N(C)CC(=O)N[C@@H](CCc3cc(F)c(C(F)(F)F)c(F)c3)C(=O)N2C1 [PP1632]	116	3.7	A (a compound having 10 or more and less than 20 is denoted as A)	A (a compound having 10 or more and less than 20 is denoted as A)
CCO[C@@H]1C[C@H]2C(=O)NC3(CCC3)C(=O)N(C)[C@@H](C3CCCC3)C(=O)N(C)[C@H](CC)CC(=O)N(C)[C@@H](CC)C(=O)N[C@@H]([C@@H](C)CC)C(=O)N(C)CC(=O)N(C)[C@H]3C/C=C\CCN(C3=O)[C@@H](Cc3ccc(C(F)(F)F)cc3)C(=O)N(C)CC(=O)N[C@@H](CCc3cc(F)c(C(F)(F)F)c(F)c3)C(=O)N2C1 [PP1625]	20.2	0.29	B (a compound having 3 or more and less than 10 is denoted as B)	B (a compound having 3 or more and less than 10 is denoted as B)
CCO[C@@H]1C[C@H]2C(=O)N(C)C3(CCCC3)C(=O)N(C)[C@@H](C3CCCC3)C(=O)N(C)[C@H](C(=O)N(C)C)CC(=O)N(C)[C@@H](CC)C(=O)N[C@@H]([C@@H](C)CC)C(=O)N(C)CC(=O)N(C)[C@H]3C/C=C\CCN(C3=O)[C@@H](Cc3ccc(C)cc3)C(=O)N(C)CC(=O)N[C@@H](CCc3cc(F)c(C(F)(F)F)c(F)c3)C(=O)N2C1 [PP1806]	4	0.06	A (a compound having 10 or more and less than 20 is denoted as A)	B (a compound having 3 or more and less than 10 is denoted as B)
CCO[C@@H]1C[C@H]2C(=O)NC3(CC(C)(C)C3)C(=O)N(C)[C@@H](C(CC)CC)C(=O)N(C)[C@H](CC)CC(=O)N(C)[C@@H](CC3CC3)C(=O)N[C@@H]([C@@H](C)CC)C(=O)N(C)CC(=O)N(C)[C@H]3C/C=C\CCN(C3=O)[C@@H](Cc3ccc(C(F)(F)F)cc3)C(=O)N(C)CC(=O)N[C@@H](CCc3cc(F)c(C(F)(F)F)c(F)c3)C(=O)N2C1 [PP1628]	150	2.5	A (a compound having 10 or more and less than 20 is denoted as A)	A (a compound having 10 or more and less than 20 is denoted as A)
CCC[C@H]1C(=O)N[C@@H]([C@@H](C)CC)C(=O)N(C)CC(=O)N(C)[C@H]2C/C=C\CCN(C2=O)[C@@H](Cc2ccc(C(F)(F)F)cc2)C(=O)N(C)CC(=O)N[C@@H](CCc2cc(F)c(C(F)(F)F)c(F)c2)C(=O)N(C)[C@@H](COC)C(=O)NC2(CC(C)(C)C2)C(=O)N(C)[C@@H](C2CCCC2)C(=O)N(C)[C@H](C(=O)N(C)C)CC(=O)N1C [PP1936]	12.3	0.4	AA (a compound having 20 or more is denoted as AA)	A (a compound having 10 or more and less than 20 is denoted as A)
CCO[C@@H]1C[C@H]2C(=O)NC3(CCCC3)C(=O)N(C)[C@@H](C3CCCC3)C(=O)N(C)[C@H](C(=O)N(C)C)CC(=O)N(C)[C@@H](CC)C(=O)N[C@@H]([C@@H](C)CC)C(=O)N(C)CC(=O)N(C)[C@H]3C/C=C\CCN(C3=O)[C@@H](Cc3ccc(C(F)(F)F)cc3)C(=O)N(C)CC(=O)N[C@@H](CCc3cc(C)c(Cl)c(C)c3)C(=O)N2C1 [PP1823]	55.9	1	A (a compound having 10 or more and less than 20 is denoted as A)	A (a compound having 10 or more and less than 20 is denoted as A)
CCO[C@@H]1C[C@H]2C(=O)NC3(CC(C)(C)C3)C(=O)N(C)[C@@H](C3CCCC3)C(=O)N(CC)[C@H](C(=O)N(C)C)CC(=O)N(C)[C@@H](CC(C)C)C(=O)N[C@@H]([C@@H](C)CC)C(=O)NCC(=O)N(C)[C@H]3C/C=C\CCN(C3=O)[C@@H](Cc3ccc(C(F)(F)F)cc3)C(=O)N(C)CC(=O)N[C@@H](CCc3cc(F)c(C(F)(F)F)c(F)c3)C(=O)N2C1 [PP1773]	39.9	0.53	A (a compound having 10 or more and less than 20 is denoted as A)	A (a compound having 10 or more and less than 20 is denoted as A)
CCCOC[C@H]1C(=O)N[C@@H]([C@@H](C)CC)C(=O)N(C)CC(=O)N(C)[C@H]2C/C=C\CCN(C2=O)[C@@H](Cc2ccc(C(F)(F)F)cc2)C(=O)N(C)CC(=O)N[C@@H](CCc2cc(F)c(C(F)(F)F)c(F)c2)C(=O)N2C[C@H](OCC)C[C@H]2C(=O)NC2(CC(F)(F)C2)C(=O)N(C)[C@@H](C2CCCC2)C(=O)N(C)[C@H](C(=O)N(C)CCC)CC(=O)N1C [PP1744]	5.3	0.13	A (a compound having 10 or more and less than 20 is denoted as A)	A (a compound having 10 or more and less than 20 is denoted as A)
CCO[C@@H]1C[C@H]2C(=O)N(C)C3(CCCC3)C(=O)N(C)[C@@H](C3CCCC3)C(=O)N(C)[C@H](C(=O)N(C)C)CC(=O)N(C)[C@@H](CC)C(=O)N[C@@H]([C@@H](C)CC)C(=O)N3CCC[C@H]3C(=O)N(C)[C@H]3C/C=C\CCN(C3=O)[C@@H](Cc3ccc(C)cc3)C(=O)N(C)CC(=O)N[C@@H](CCc3cc(F)c(C(F)(F)F)c(F)c3)C(=O)N2C1 [PP1810]	4.6	0.16	A (a compound having 10 or more and less than 20 is denoted as A)	B (a compound having 3 or more and less than 10 is denoted as B)

Reference: patent US20240158446A1, “CYCLIC COMPOUND HAVING SELECTIVE INHIBITORY ACTION ON KRAS OVER HRAS AND NRAS” (CHUGAI SEIYAKU KABUSHIKI KAISHA, priority 2021, published 2024)
